The values below are quoted from earlier work in patent US12280058B2, “Gasotransmitter metabolites and Alzheimer's disease” (Board of Supervisors of Louisiana State University and …, priority 2020, dated 2025).

The IC50 is the concentration that inhibits the measured activity by half.

One data set deals with CSE (Homo sapiens, UniProt P32929). To be noted: read-out: IC50 (CSE inhibitor).
The next data set concerns infarct. To be noted: administration.

CSE, sequence (P32929 whole entry, species assumed): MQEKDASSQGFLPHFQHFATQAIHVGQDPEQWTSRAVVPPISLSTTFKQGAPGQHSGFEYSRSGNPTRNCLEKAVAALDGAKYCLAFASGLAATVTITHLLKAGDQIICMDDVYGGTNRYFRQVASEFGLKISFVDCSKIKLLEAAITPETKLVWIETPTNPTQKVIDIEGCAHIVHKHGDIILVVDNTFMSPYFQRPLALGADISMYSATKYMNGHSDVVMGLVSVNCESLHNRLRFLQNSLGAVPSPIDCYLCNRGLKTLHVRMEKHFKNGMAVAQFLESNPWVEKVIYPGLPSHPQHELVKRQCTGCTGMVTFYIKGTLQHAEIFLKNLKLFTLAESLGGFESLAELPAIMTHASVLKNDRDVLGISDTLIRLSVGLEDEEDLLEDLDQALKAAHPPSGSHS

In the case of `NCCO/C=C/[C@H](N)C(=O)O` [L-aminoethoxyvinylglycine], the IC50 at CSE is < 1 µM.

For `CCOc1ccc2nc(Sc3nc(Nc4cccc([N+](=O)[O-])c4)nc(Nc4cc(OC)ccc4OC)n3)sc2c1` [compound 1157172, 2-[(4-(2,5-dimethoxyanilino)-6-(3-nitroanilino)-1,3,5-triazin-2-yl)sulfanyl]-6-ethoxy-1,3-benzothiazole], the IC50 on CSE is 30 µM.

For the compound `C#CC[C@H](N)C(=O)O`, the IC50 at CSE was 40 µM.

In the case of `S` [sodium hydrosulfide], in the data set on infarct, the “infarct volume / size of infarct” value was “increased infarct volume”.
